Structures can show the parent of a compound that is named as a salt. Blank lines part the entries; values can stand above or below the compound they belong to.
Tests used:
[1] = Body weight and blood pressure during ceftriaxone treatment; settings: ceftriaxone sodium 400 mg/kg/day orally, 2 weeks; WKYs and SHRs
gut microbiota = experiment: Fecal gut microbiota analysis after ceftriaxone treatment (16S rRNA, bacterial load); format: in vivo, rat; settings: ceftriaxone sodium 400 mg/kg/day orally, 2 weeks; feces of WKYs and SHRs
Description: Fecal samples were freshly collected, rapidly frozen, and weighed before storage at −80 °C until use. The absolute quantification of bacterial 16S rRNA amplicon sequencing was conducted by Majorbio Bio-Pharm Technology Co. Ltd. in Shanghai, China. Total microbial genomic DNA was extracted using the E. Z. N. A.® Soil DNA Kit, following the manufacturer’s guidelines. The quality and concentration of the extracted DNA were assessed through 1.0% agarose gel electrophoresis and with a NanoDrop 2000 spectrophotometer. RT-PCR was performed using universal 16S primers (Forward: 5′-[sequence]-3′, Reverse: 5′-[sequence]-3′) ([Nadkarni et al., 2002]). The relative bacterial load was determined by normalizing the DNA content against the weight of feces from the untreated group.
Fecal DNA was extracted utilizing the E. Z. N. A.® Soil DNA Kit. The extracted DNA was analyzed using a 1% agarose gel, and its concentration and purity were assessed with NanoDrop2000 spectrophotometer. […] The resulting PCR products were purified, quantified, and homogenized to create a sequencing library, which was commissioned to Majorbio Bio Pharm Technology Co. Ltd. The sequencing data were processed using the DADA2 algorithm in Qiime 2 to obtain amplicon sequence variants (ASVs), followed by the removal of chloroplast and mitochondrial sequences. […]

[2] = Metabolites detection in vivo in plasma, feces and urine (UHPLC-Q-TOF-MS); parameters: species or system rat; settings: single oral losartan potassium 20 mg/kg
Description: For urine and feces, cumulative samples were collected over the following time intervals: 0–4, 4–8, 8–12, and 12–24 h after administration. The processing of the biological samples can be found in the Supplementary material.
The biological samples were processed as follows: For plasma, a total of 400 μL of pooled plasma was mixed by combining 50 μL aliquots from each time point. A 100 μL aliquot was mixed with 300 μL of methanol, vortexed for one minute, and centrifuged at 5,000 rpm for 10 minutes at 4°C [1]. In the case of urine, 1 mL was centrifuged at 4,000 rpm for 20 minutes at 4°C, and the supernatant was mixed with 2 mL of methanol, vortexed for one minute, and centrifuged at 12,000 rpm for 10 minutes at 4°C [2]. For fecal samples, 1.0 g of homogenized feces was extracted with 4 mL of methanol, sonicated in an ice-water bath for 20 minutes, and then centrifuged at 12,000 rpm for 10 minutes at 4°C [3]. Supernatants from the plasma, urine, and fecal extracts were evaporated under nitrogen gas, redissolved in methanol, and transferred to liquid chromatography vials. Samples were analyzed using UHPLC-Q-TOF-MS/MS for metabolite profiling.

[3] = Stability of the analytes in rat plasma at different storage conditions; format: in vitro ADME
Description: Analysis of QC samples was performed according to a standard curve, which was obtained from freshly prepared calibration standard samples. The autosampler stability was determined by placing samples in the autosampler rack at 8 ℃ for 24 h. The freeze-thaw stability was evaluated after three complete freeze-thaw cycles (-80 ℃ to 25 ℃) on consecutive days. The short-term stability was determined after samples were exposed to room temperature for 6 h. The long-term stability was assessed after storing the samples at -80 ℃ for 30 days. The analytes were considered stable if the deviation between the mean measured concentration and the nominal concentration was within ± 15.0%.

in vivo = settings: for MRT last: MRT0-t; for MRT inf: MRT 0-∞; for half-life: t1/2z
Description: The pharmacokinetic study was described as follows.
The UHPLC-TQ-MS analysis was conducted on an LC-30 AD ultra high-performance liquid chromatograph (Shimadzu, Japan) connected to an AB 4500 (AB Sciex, United States) Triple Quadrupole Mass Spectrometer with an ESI source. Chromatographic separation was achieved on an Acquity UHPLC HSS T3 column (100 × 2.1 mm, 1.8 μm) at 40 °C, and the eluent was aqueous formic acid (100:0.1, v/v) (A) and acetonitrile with formic acid (100:0.1, v/v) (B) at a flow rate of 0.3 mL min^−1. Gradient elution differs in the calculation of residual content and pharmacokinetic experiments. MRM mode was employed. Data processing was performed using Analyst Software (AB Sciex). The UHPLC-TQ-MS method validation was conducted in terms of selectivity, linearity, carryover, accuracy and precision, matrix effect, extraction recovery, dilution integrity, and stability under various conditions, which was performed in line with the FDA guidelines for bioanalytical assays. More details were described in the Supplementary material method.
The comparisons of the relative abundance of the genera between different groups were performed using the Wilcoxon rank-sum test. Comparisons between WKY and SHRs before and after CRO treatment were conducted using either a t-test or one-way ANOVA, with p values < 0.05 considered statistically significant. […] Graphs were created using GraphPad Prism 8.0 software.
For the determination of drug remaining contents in the supernatant, the gradient elution was as follows: 0.1–0.5 min at 45% B; 0.5–1.0 min at 45–65% B; 1.5–4.0 min at 65–85% B; 4.0–4.5 min at 85% B; 4.5–4.6 min at 85%–45% B; 4.6–5.0 min at 45% B. For pharmacokinetics, the gradient elution was performed as follows: 0–0.5 min at 30% B; 0.5–1.5 min at 30–45% B; 1.5–5.0 min at 45–60% B; 5.0–7.0 min at 60–80% B; 7.0–8.0 min at 80% B; 8.1–10.0 min at 30% B. The injection volume was 5 μ L. The multiple reaction monitoring (MRM) mode was used to detect analytes and IS in the positive ion mode. The mass spectrometry parameters were set as follows: ion spray voltage was 5500 V, turbo spray temperature (TEM) of 550℃; nebulizer gas (gas 1) of 50 psi; heater gas (gas 2) of 50 psi and curtain gas of 40 psi. Nitrogen was kept as the nebulizer and auxiliary gas.

[4] = parameters: method as in Yoo et al., 2016; settings: ref Yoo et al., 2016; cited from earlier work
[5] = SHR, rat, in vivo, po, 20 mg/kg
[6] = WKY, rat, in vivo, po, 20 mg/kg

Compound: CO/N=C(\C(=O)N[C@@H]1C(=O)N2C(C(=O)O)=C(CSc3nc(=O)c(=O)[nH]n3C)CS[C@H]12)c1csc(N)n1 [CRO, ceftriaxone disodium salt hemiheptahydrate]
Body weight, CRO-treated vs untreated [1]: no differences in body weight | α-diversity (Chao1, Shannon index) and bacterial abundance (gut microbiota): significant reduction

Abundance in feces and plasma, SHRs vs WKYs [2]: lower in SHRs than in WKYs | Abundance in urine, SHRs vs WKYs [2]: more abundant in urine | Stability RE ([3]; autosampler for 24 h (8 ℃), high nominal conc. (losartan 8000, E-3174 4000, E-3179 1600 ng/mL)): 2.34% | Stability RE ([3]; autosampler for 24 h (8 ℃), low nominal conc. (losartan 0.2, E-3174 10, E-3179 0.4 ng/mL)): 2.96% | Stability RE ([3]; autosampler for 24 h (8 ℃), middle nominal conc. (losartan 2000, E-3174 1000, E-3179 400 ng/mL)): 12.05% | Stability RE ([3]; room temperature for 6 h, high nominal conc. (losartan 8000, E-3174 4000, E-3179 1600 ng/mL)): -10.69% | Stability RE ([3]; room temperature for 6 h, low nominal conc. (losartan 0.2, E-3174 10, E-3179 0.4 ng/mL)): -2.22% | Stability RE ([3]; room temperature for 6 h, middle nominal conc. (losartan 2000, E-3174 1000, E-3179 400 ng/mL)): 4.87% | Stability RE ([3]; three freeze-thaw cycles, high nominal conc. (losartan 8000, E-3174 4000, E-3179 1600 ng/mL)): 6.66% | Stability RE ([3]; three freeze-thaw cycles, low nominal conc. (losartan 0.2, E-3174 10, E-3179 0.4 ng/mL)): 2.96% | Stability RE ([3]; three freeze-thaw cycles, middle nominal conc. (losartan 2000, E-3174 1000, E-3179 400 ng/mL)): 2.84% | Stability RE ([3]; −80°C for 30 days, high nominal conc. (losartan 8000, E-3174 4000, E-3179 1600 ng/mL)): 7.58% | Stability RE ([3]; −80°C for 30 days, low nominal conc. (losartan 0.2, E-3174 10, E-3179 0.4 ng/mL)): 3.27% | Stability RE ([3]; −80°C for 30 days, middle nominal conc. (losartan 2000, E-3174 1000, E-3179 400 ng/mL)): 9.16% | AUC0-∞ (in vivo; [5]): 900.54 ± 226.29 ng·h/mL | AUC(0-t) (in vivo; [5]): 850.57 ± 189.22 ng·h/mL | Cmax (in vivo; [5]): 143.43 ± 108.27 ng/mL | MRT0-t (in vivo; [5]): 7.68 ± 1.38 h | MRT 0-∞ (in vivo; [5]): 11.33 ± 2.86 h | Tmax (in vivo; [5]): 1.96 ± 1.15 h | t1/2z (in vivo; [5]): 5.61 ± 3.15 h | MRT last (in vivo; [5]): 6.99 ± 1.41 h | MRT inf (in vivo; [5]): 9.57 ± 2.83 h | Tmax (in vivo; SHR, rat, in vivo, po, 20 mg/kg, Tmax): 1.83 ± 1.69 h | half-life (in vivo; [5]): 5.51 ± 2.46 h | Decrease of AUC0-∞ (in vivo; SHRs compared to WKYs, losartan potassium 20 mg/kg intragastric): 36.13% | Cmax (in vivo; [6]): 310.47 ± 243.53 ng/mL | MRT0-t (in vivo; [6]): 10.46 ± 1.03 h | MRT 0-∞ (in vivo; [6]): 15.25 ± 4.02 h | t1/2z (in vivo; [6]): 5.29 ± 1.44 h | AUC(0-t) (in vivo; WKY, rat, in vivo, po, 20 mg/kg, AUC0-t): 1340 ± 741 ng·h/mL | AUC(0-inf) (in vivo; WKY, rat, in vivo, po, 20 mg/kg, AUC0-∞): 1410 ± 741 ng·h/mL | MRT last (in vivo; [6]): 6.18 ± 1.58 h | MRT inf (in vivo; [6]): 8.79 ± 4.19 h | half-life (in vivo; [6]): 5.75 ± 2.71 h
Compound: CCCCc1nc(Cl)c(C=O)n1Cc1ccc(-c2ccccc2-c2nn[nH]n2)cc1 [E-3179]

Compound: CCOC(=O)C1=C(COCCN)NC(C)=C(C(=O)OC)C1c1ccccc1Cl (centres unmarked) [amlodipine]
Systemic exposure in antibiotic-treated rats vs controls [4]: significantly elevated

From publication PMC12705613 (Frontiers in Microbiology, 2025)
